Assay results: patent US9073855B2, “BCL-2 selective apoptosis-inducing agents for the treatment of cancer and immune diseases” (AbbVie Inc., priority 2008, dated 2015)
pEC50, pKi: −log10 of the molar value.

Key:
[1] = biological target: GST-Bcl-XL (Homo sapiens, UniProt Q07817); experiment: TR-FRET binding assay, GST-Bcl-XL with F-Bak peptide probe; conditions: TR-FRET Binding Affinity, GST-Bcl-XL, F-Bak peptide probe
Method in brief: (§1)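 Compounds were serially diluted in DMSO from a 50 μM starting solution (2× the starting concentration; 10% DMSO). Plates were incubated for 3 h at room temperature, and TR-FRET was read with 340/35 nm excitation and emission at 520/525 nm (F-Bak) and 495/510 nm (Tb antibody). Ki values were calculated using Wang's competitive-binding equation.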

[2] = biological target: GST-Bcl-2 (Homo sapiens, UniProt P10415); experiment: TR-FRET binding assay, GST-Bcl-2 with F-Bak peptide probe; conditions: for pKi: TR-FRET Binding Affinity, GST-Bcl-2, F-Bak peptide probe; for Binding selectivity ratio (Bcl-XL Ki/Bcl-2 Ki): ratio of TR-FRET Ki values, Bcl-XL over Bcl-2
GST-Bcl-2, sequence (P10415 whole entry): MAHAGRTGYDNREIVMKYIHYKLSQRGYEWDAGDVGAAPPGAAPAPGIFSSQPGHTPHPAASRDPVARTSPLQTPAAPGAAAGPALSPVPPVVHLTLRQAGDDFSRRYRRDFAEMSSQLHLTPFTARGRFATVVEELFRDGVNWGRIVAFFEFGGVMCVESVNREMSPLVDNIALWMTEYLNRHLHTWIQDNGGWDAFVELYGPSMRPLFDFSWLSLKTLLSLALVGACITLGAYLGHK
Method in brief: as §1

[3] = test system: FL5.12/Bcl-2 cells; experiment: FL5.12/Bcl-2 cell viability assay under IL-3 withdrawal (CellTitre Glo); type: cell-based, murine; conditions: Mus musculus, IL-3 withdrawn 48 hrs, then 24 hrs with compound
Method in brief: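 Cells (1×10^6/ml) are washed, resuspended in medium lacking WEHI-3B conditioned medium as IL-3 source, and held 48 hrs. Compounds are then added at a range of concentrations for 24 hrs, after which CellTitre Glo reports viability.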

GST-Bcl-XL, sequence (Q07817 whole entry): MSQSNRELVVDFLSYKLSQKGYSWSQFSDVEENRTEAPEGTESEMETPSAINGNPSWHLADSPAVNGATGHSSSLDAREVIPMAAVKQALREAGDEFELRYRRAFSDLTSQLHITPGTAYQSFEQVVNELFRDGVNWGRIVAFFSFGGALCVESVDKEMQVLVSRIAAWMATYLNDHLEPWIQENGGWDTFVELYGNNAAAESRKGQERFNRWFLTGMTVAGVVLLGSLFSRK

Compound	pKi [1]	pKi [2]	pEC50 [3]	Binding selectivity ratio (Bcl-XL Ki/Bcl-2 Ki) [2]
CC1(C)CCC(CN2CCN(c3ccc(C(=O)NS(=O)(=O)c4cnc(OCC5CCOCC5)c(C#N)c4)c(Oc4cccc5[nH]ccc45)c3)CC2)=C(c2ccc(Cl)cc2)C1 [Example 386, 4-(4-{[2-(4-chlorophenyl)-4,4-dimethylcyclohex-1-en-1-yl]methyl}piperazin-1-yl)-N-{[5-cyano-6-(tetrahydro-2H-pyran-4-ylmethoxy)pyridin-3-yl]sulfonyl}-2-(1H-indol-4-yloxy)benzamide]	6.93	9.62	6.81	–
CC1(C)CCC(CN2CCN(c3ccc(C(=O)NS(=O)(=O)c4cnc(OCC5CCOCC5)c(Cl)c4)c(Oc4cccc5[nH]ccc45)c3)CC2)=C(c2ccc(Cl)cc2)C1 [Example 387, 4-(4-{[2-(4-chlorophenyl)-4,4-dimethylcyclohex-1-en-1-yl]methyl}piperazin-1-yl)-N-{[5-chloro-6-(tetrahydro-2H-pyran-4-ylmethoxy)pyridin-3-yl]sulfonyl}-2-(1H-indol-4-yloxy)benzamide]	6.55	9.79	7.06	–
CC1(C)CCC(CN2CCN(c3ccc(C(=O)NS(=O)(=O)c4cnc(OCCN5CCOCC5)c(C#N)c4)c(Oc4ccc5[nH]ccc5c4)c3)CC2)=C(c2ccc(Cl)cc2)C1 [Example 388, 4-(4-{[2-(4-chlorophenyl)-4,4-dimethylcyclohex-1-en-1-yl]methyl}piperazin-1-yl)-N-{[5-cyano-6-(2-morpholin-4-ylethoxy)pyridin-3-yl]sulfonyl}-2-(1H-indol-5-yloxy)benzamide]	7.46	9.73	7.08	–
CC1(C)CCC(CN2CCN(c3ccc(C(=O)NS(=O)(=O)c4ccc(OC5CCN(C6CCOCC6)CC5)c([N+](=O)[O-])c4)c(Oc4ccc5[nH]ccc5c4)c3)CC2)=C(c2ccc(Cl)cc2)C1 [Example 389, 4-(4-{[2-(4-chlorophenyl)-4,4-dimethylcyclohex-1-en-1-yl]methyl}piperazin-1-yl)-2-(1H-indol-5-yloxy)-N-({3-nitro-4-[(1-tetrahydro-2H-pyran-4-ylpiperidin-4-yl)oxy]phenyl}sulfonyl)benzamide]	7.17	10.01	7.55	–
CC1(C)CCC(CN2CCN(c3ccc(C(=O)NS(=O)(=O)c4ccc(OCC#CCN5CCOCC5)c([N+](=O)[O-])c4)c(Oc4ccc5[nH]ccc5c4)c3)CC2)=C(c2ccc(Cl)cc2)C1 [Example 390, 4-(4-{[2-(4-chlorophenyl)-4,4-dimethylcyclohex-1-en-1-yl]methyl}piperazin-1-yl)-2-(1H-indol-5-yloxy)-N-({4-[(4-morpholin-4-ylbut-2-ynyl)oxy]-3-nitrophenyl}sulfonyl)benzamide]	6.94	9.47	7.39	–
C#Cc1cc(S(=O)(=O)NC(=O)c2ccc(N3CCN(CC4=C(c5ccc(Cl)cc5)CC(C)(C)CC4)CC3)cc2Oc2cccc3[nH]ccc23)cnc1OCC1CCOCC1 [Example 391, 4-(4-{[2-(4-chlorophenyl)-4,4-dimethylcyclohex-1-en-1-yl]methyl}piperazin-1-yl)-N-{[5-ethynyl-6-(tetrahydro-2H-pyran-4-ylmethoxy)pyridin-3-yl]sulfonyl}-2-(1H-indol-4-yloxy)benzamide]	< 6.18	8.45	< 6.30	–
CN1CCC(Nc2ccc(S(=O)(=O)NC(=O)c3ccc(N4CCN(CC5=C(c6ccc(Cl)cc6)CC(C)(C)CC5)CC4)cc3Nc3cccnc3)cc2[N+](=O)[O-])CC1 [Example 396, 4-(4-{[2-(4-chlorophenyl)-4,4-dimethylcyclohex-1-en-1-yl]methyl}piperazin-1-yl)-N-({4-[(1-methylpiperidin-4-yl)amino]-3-nitrophenyl}sulfonyl)-2-(pyridin-3-ylamino)benzamide]	< 3.18	6.94	< 6.30	>5705.9
CC1(C)CCC(CN2CCN(c3ccc(C(=O)NS(=O)(=O)c4ccc(NC5CCN(C6CCOCC6)CC5)c([N+](=O)[O-])c4)c(Oc4cccnc4)c3)CC2)=C(c2ccc(Cl)cc2)C1 [Example 398, 4-(4-{[2-(4-chlorophenyl)-4,4-dimethylcyclohex-1-en-1-yl]methyl}piperazin-1-yl)-N-({3-nitro-4-[(1-tetrahydro-2H-pyran-4-ylpiperidin-4-yl)amino]phenyl}sulfonyl)-2-(pyridin-3-yloxy)benzamide]	7.08	8.91	6.48	67.7
CC1(C)CCC(CN2CCN(c3ccc(C(=O)NS(=O)(=O)c4ccc(NCC5CCOCC5)c([N+](=O)[O-])c4)c(Oc4cccc5c4CCNC5)c3)CC2)=C(c2ccc(Cl)cc2)C1 [Example 399, 4-(4-{[2-(4-chlorophenyl)-4,4-dimethylcyclohex-1-en-1-yl]methyl}piperazin-1-yl)-N-({3-nitro-4-[(tetrahydro-2H-pyran-4-ylmethyl)amino]phenyl}sulfonyl)-2-(1,2,3,4-tetrahydroisoquinolin-5-yloxy)benzamide]	< 3.18	8.53	< 6.30	>225764.5
CC1(C)CCC(CN2CCN(c3ccc(C(=O)NS(=O)(=O)c4ccc(NCC5CCOCC5)c([N+](=O)[O-])c4)c(Oc4cccc5[nH]ncc45)c3)CC2)=C(c2ccc(Cl)cc2)C1 [Example 400, 4-(4-{[2-(4-chlorophenyl)-4,4-dimethylcyclohex-1-en-1-yl]methyl}piperazin-1-yl)-2-(1H-indazol-4-yloxy)-N-({3-nitro-4-[(tetrahydro-2H-pyran-4-ylmethyl)amino]phenyl}sulfonyl)benzamide]	7.44	> 11.00	8.07	–
CC1(C)CCC(CN2CCN(c3ccc(C(=O)NS(=O)(=O)c4ccc(NC5CCN(C6CCOCC6)CC5)c([N+](=O)[O-])c4)c(Oc4cccc5[nH]ncc45)c3)CC2)=C(c2ccc(Cl)cc2)C1 [Example 401, 4-(4-{[2-(4-chlorophenyl)-4,4-dimethylcyclohex-1-en-1-yl]methyl}piperazin-1-yl)-2-(1H-indazol-4-yloxy)-N-({3-nitro-4-[(1-tetrahydro-2H-pyran-4-ylpiperidin-4-yl)amino]phenyl}sulfonyl)benzamide]	8.79	> 11.00	8.27	>162.1
CC1(C)CCC(CN2CCN(c3ccc(C(=O)NS(=O)(=O)c4ccc(N[C@H]5CC[C@H](N6CCOCC6)CC5)c([N+](=O)[O-])c4)c(Oc4cccc5[nH]ncc45)c3)CC2)=C(c2ccc(Cl)cc2)C1 [Example 402, Trans-4-(4-{[2-(4-chlorophenyl)-4,4-dimethylcyclohex-1-en-1-yl]methyl}piperazin-1-yl)-2-(1H-indazol-4-yloxy)-N-({4-[(4-morpholin-4-ylcyclohexyl)amino]-3-nitrophenyl}sulfonyl)benzamide]	8.38	10.52	7.87	137.4
CC1(C)CCC(CN2CCN(c3ccc(C(=O)NS(=O)(=O)c4ccc(NCC5CCOCC5)c([N+](=O)[O-])c4)c(Oc4cccc5[nH]cnc45)c3)CC2)=C(c2ccc(Cl)cc2)C1 [Example 403, 2-(1H-benzimidazol-4-yloxy)-4-(4-{[2-(4-chlorophenyl)-4,4-dimethylcyclohex-1-en-1-yl]methyl}piperazin-1-yl)-N-({3-nitro-4-[(tetrahydro-2H-pyran-4-ylmethyl)amino]phenyl}sulfonyl)benzamide]	7.61	11.52	8.53	–
